Measurements as given in ChEMBL document CHEMBL1201862, “PubChem BioAssay data set” (2004).
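Test compounds were applied to cells in 96-well plates for 48 hours at 5 doses. At the GI50, growth is halved.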 Active and inactive are the calls of the source. Rule as the data show it: active = GI50 up to about 1.1 µM and inactive = higher.

What was measured:
Experiment in all cases: NCI tumour cell line growth inhibition, 48 h
[1] = test system: 786-0
[2] = test system: A498
[3] = test system: ACHN
[4] = test system: BT-549
[5] = test system: CCRF-CEM
[6] = test system: DU-145
[7] = test system: EKVX
[8] = test system: M14
[9] = test system: MCF7
[10] = test system: MDA-MB-435
[11] = test system: MDA-N
[12] = test system: NCI-H226
[13] = test system: OVCAR-3
[14] = test system: OVCAR-5
[15] = test system: SK-MEL-5
[16] = test system: SK-OV-3
[17] = test system: SNB-75
[18] = test system: T47D
[19] = test system: U-251
[20] = test system: SF-268

Row | SMILES | GI50 [1] | GI50 [2] | GI50 [3] | GI50 [4] | GI50 [5] | GI50 [6] | GI50 [7] | GI50 [8] | GI50 [9] | GI50 [10] | GI50 [11] | GI50 [12] | GI50 [13] | GI50 [14] | GI50 [15] | GI50 [16] | GI50 [17] | GI50 [18] | GI50 [19] | GI50 [20]
1 | CCOP(C)(=O)/C(Cc1ccc(OC)c(OC)c1)=N\O (centres undefined) | > 100 µM (inactive) | > 100 µM (inactive) | > 100 µM (inactive) | > 100 µM (inactive) | > 100 µM (inactive) | > 100 µM (inactive) | > 100 µM (inactive) | > 100 µM (inactive) | > 100 µM (inactive) | > 100 µM (inactive) | > 100 µM (inactive) | > 100 µM (inactive) | > 100 µM (inactive) | > 100 µM (inactive) | > 100 µM (inactive) | > 100 µM (inactive) | > 100 µM (inactive) | > 100 µM (inactive) | > 100 µM (inactive) | 
2 | CN(C)CCCN1c2ccccc2CCc2cc([N+](=O)[O-])ccc21 | 15.2 µM (inactive) | 12.8 µM (inactive) | 16.3 µM (inactive) | 16.6 µM (inactive) |  | 18.2 µM (inactive) | 20.3 µM (inactive) | 16.3 µM (inactive) | 16.8 µM (inactive) | 15.8 µM (inactive) | 15 µM (inactive) | 17.5 µM (inactive) | 17.9 µM (inactive) | 16.5 µM (inactive) | 12.9 µM (inactive) |  | 12.9 µM (inactive) | 17.1 µM (inactive) | 17.4 µM (inactive) | 14.7 µM (inactive)
3 | NC1=Nc2cc(C(F)(F)F)ccc2Sc2nc3ccccc3n21 | 11.6 µM (inactive) | > 45.5 µM (inactive) | > 78.9 µM (inactive) | > 100 µM (inactive) | 2.64 µM (inactive) | > 94.6 µM (inactive) | 13.8 µM (inactive) | 3.98 µM (inactive) | > 76.9 µM (inactive) | > 100 µM (inactive) | 5.53 µM (inactive) | 12.1 µM (inactive) | 33.1 µM (inactive) | > 52.8 µM (inactive) | 6.73 µM (inactive) | 37.5 µM (inactive) | 19.9 µM (inactive) | 26.6 µM (inactive) | 5.56 µM (inactive) | 16.6 µM (inactive)
4 | Cc1nc2ccccc2c(=O)n1/N=C/c1ccc(N(C)C)cc1 | 71.4 µM (inactive) | > 100 µM (inactive) | > 100 µM (inactive) | 46 µM (inactive) | > 100 µM (inactive) | > 100 µM (inactive) | > 100 µM (inactive) | > 100 µM (inactive) | > 100 µM (inactive) | > 100 µM (inactive) | > 100 µM (inactive) | > 100 µM (inactive) | > 100 µM (inactive) | > 100 µM (inactive) | > 100 µM (inactive) | 83.6 µM (inactive) | 15.4 µM (inactive) | > 100 µM (inactive) | 45 µM (inactive) | 33.7 µM (inactive)
5 | COC(=O)[C@@H]1C[C@]2(Br)c3ccccc3N(S(=O)(=O)c3ccccc3)[C@@H]2N1C(=O)OC | > 100 µM (inactive) | 59.2 µM (inactive) | > 100 µM (inactive) | > 100 µM (inactive) | > 100 µM (inactive) | 43.7 µM (inactive) | 74.1 µM (inactive) |  | > 100 µM (inactive) | > 100 µM (inactive) | > 100 µM (inactive) | 85.7 µM (inactive) | > 100 µM (inactive) | 51.3 µM (inactive) | > 100 µM (inactive) | > 100 µM (inactive) | 66.8 µM (inactive) | > 100 µM (inactive) | > 100 µM (inactive) | > 100 µM (inactive)
6 | O=[N+]([O-])c1cc(F)ccc1S(=O)(=O)c1ccccc1 | > 10 µM (inactive) | > 10 µM (inactive) | > 10 µM (inactive) | > 10 µM (inactive) | > 10 µM (inactive) | > 10 µM (inactive) | 5.14 µM (inactive) | > 10 µM (inactive) | > 10 µM (inactive) | > 10 µM (inactive) | > 10 µM (inactive) | > 10 µM (inactive) | > 10 µM (inactive) | > 10 µM (inactive) | > 10 µM (inactive) | > 10 µM (inactive) | > 10 µM (inactive) | > 10 µM (inactive) | > 10 µM (inactive) | > 10 µM (inactive)
7 | CC(C)(C)N/N=C(/Cc1nc2c3c(ccc2nc1O)C(=O)c1ccccc1C3=O)C(=O)NC1=C(Cl)C(=O)c2ccccc2C1=O | 33.2 µM (inactive) | 88.9 µM (inactive) | 5.37 µM (inactive) | 70.5 µM (inactive) | 14.4 µM (inactive) | 21.8 µM (inactive) | 61.2 µM (inactive) | 15.5 µM (inactive) | 20 µM (inactive) | 33 µM (inactive) | 15.1 µM (inactive) | 10.7 µM (inactive) | 13.9 µM (inactive) | > 100 µM (inactive) | 11.1 µM (inactive) | 7.16 µM (inactive) | 2.38 µM (inactive) | 23.3 µM (inactive) | 47.8 µM (inactive) | 6.97 µM (inactive)
8 | COC(=O)C(Cc1c[nH]c2ccccc12)NP(=O)(O)OCC1OC(n2cc(F)c(=O)[nH]c2=O)CC1O (centres undefined) | 28.2 µM (inactive) | 0.964 µM (active) | 6.89 µM (inactive) | > 100 µM (inactive) | 3.59 µM (inactive) | 43.9 µM (inactive) | > 100 µM (inactive) | 30.8 µM (inactive) | 7.35 µM (inactive) | > 100 µM (inactive) | > 100 µM (inactive) | > 100 µM (inactive) | > 100 µM (inactive) | > 100 µM (inactive) | 77.3 µM (inactive) | > 92.5 µM (inactive) | > 63.7 µM (inactive) | > 32.5 µM (inactive) | > 100 µM (inactive) | 4.94 µM (inactive)
9 | CCOC(=O)C1C(=O)CC(O)(c2ccccc2)C(C(=O)OCC)C1c1ccc(N(C)C)cc1 (centres undefined) | 26.7 µM (inactive) | 31.6 µM (inactive) | 50.4 µM (inactive) | 28.6 µM (inactive) | 17.3 µM (inactive) | 57.1 µM (inactive) | 40.9 µM (inactive) | 35.6 µM (inactive) | 21.8 µM (inactive) | 5.04 µM (inactive) | 6.44 µM (inactive) | 51.4 µM (inactive) | 24 µM (inactive) | 74.3 µM (inactive) | 22.3 µM (inactive) | 18.2 µM (inactive) | 24.9 µM (inactive) | 27.6 µM (inactive) | 24.7 µM (inactive) | 24.9 µM (inactive)
10 | O=C1C=CN(C2OC(CO)C(O)C2O)C(=O)C1 (centres undefined) | 13.3 µM (inactive) | 867 µM (inactive) | 39.2 µM (inactive) | > 2500 µM (inactive) | 6.87 µM (inactive) | 9.38 µM (inactive) | > 2500 µM (inactive) | 231 µM (inactive) | 7.76 µM (inactive) | 161 µM (inactive) | 62.5 µM (inactive) | 423 µM (inactive) | 692 µM (inactive) | 1350 µM (inactive) |  | 1320 µM (inactive) | 838 µM (inactive) | 173 µM (inactive) |  | 
11 | C/C(=N\NC(=O)c1ccncc1)c1ccccc1Cl | > 100 µM (inactive) | > 100 µM (inactive) | > 100 µM (inactive) | > 100 µM (inactive) | > 100 µM (inactive) | > 100 µM (inactive) | > 100 µM (inactive) | > 100 µM (inactive) | > 100 µM (inactive) | > 100 µM (inactive) | > 100 µM (inactive) | > 100 µM (inactive) | > 100 µM (inactive) | > 100 µM (inactive) | > 100 µM (inactive) | > 100 µM (inactive) | > 100 µM (inactive) | > 100 µM (inactive) | > 100 µM (inactive) | > 100 µM (inactive)
12 | CCOP(=O)(O)CN1CCNCCN(CP(=O)(O)OCC)CCNCC1 | > 100 µM (inactive) | > 100 µM (inactive) | > 100 µM (inactive) | > 100 µM (inactive) | > 100 µM (inactive) | > 100 µM (inactive) | > 100 µM (inactive) |  | > 100 µM (inactive) | > 100 µM (inactive) | > 100 µM (inactive) | > 100 µM (inactive) | > 100 µM (inactive) | > 100 µM (inactive) | > 100 µM (inactive) | > 100 µM (inactive) | > 100 µM (inactive) | > 100 µM (inactive) | > 100 µM (inactive) | 
13 | Cc1ccc(C2(C)CC/C(=N/N=C3/CCC(C)(c4ccc(C)c(C)c4)c4cc(C)c(C)cc43)c3cc(C)c(C)cc32)cc1C (centres undefined) | > 100 µM (inactive) | > 100 µM (inactive) | > 100 µM (inactive) | > 100 µM (inactive) |  | > 100 µM (inactive) | > 100 µM (inactive) | > 100 µM (inactive) | > 100 µM (inactive) | > 100 µM (inactive) | > 100 µM (inactive) | > 100 µM (inactive) | > 100 µM (inactive) | > 100 µM (inactive) | > 100 µM (inactive) | > 100 µM (inactive) | > 100 µM (inactive) | > 100 µM (inactive) | > 100 µM (inactive) | > 100 µM (inactive)
14 | Sc1nc2c(c(-c3nc(S)nc4c3CCCCCCCCCC4)n1)CCCCCCCCCC2 | > 100 µM (inactive) | > 100 µM (inactive) | > 100 µM (inactive) | > 100 µM (inactive) |  | > 100 µM (inactive) | > 100 µM (inactive) | > 100 µM (inactive) | > 100 µM (inactive) | > 100 µM (inactive) | > 100 µM (inactive) | > 100 µM (inactive) | > 100 µM (inactive) | > 100 µM (inactive) | > 100 µM (inactive) | > 100 µM (inactive) | > 100 µM (inactive) | > 100 µM (inactive) | > 100 µM (inactive) | > 100 µM (inactive)
